Data from patent publication EP2303842B1, “A process for producing lercanidipine.HCl form V” (Recordati Ireland Limited, priority 2008, dated 2010).
Counter-ions that a name gives are not always drawn.

Experiment: Solubility determination in water, HCl 0.1 M and organic solvents (shaken suspensions, HPLC assay of the supernatant)
Type: physicochemical
Conditions: 25°C, shaken 24h, 1440 min
Experimental: For this purpose, solubility determination at RT of FI, FII and FV in water, HCl 0.1 M and some organic solvents has been carried out as described in the experimental section.
Suspensions in different solvents, ranging in concentration from 20 mg/mL to 400 mg/mL, depending on the solubility, were shaken with thermomixer at 25°C, […] for 24h. An aliquot was taken, centrifuged for 5 minutes at 13000 rpm, the supernatant was transferred in HPLC vials, opportunely diluted and assayed. For aqueous solvent the supernatant was further filtered with a 0.2 µm PVDF filter and centrifuged for 5 minutes at 8000 rpm.
Solubility data (mg/mL) obtained are gathered in Table 2. Table 2: solubility
HPLC-DAD: HP 1050 separation module controlled by HP Chem-station. Method:
Standard and calibration: automatic three point calibration (0.5 mg/mL, 1.0 mg/mL, 1.5 mg/mL), including the zero, using HP Chem-station program.

[1] = solvent H2O, supernatant filtered 0.2 µm PVDF
[2] = solvent HCl 0.1M, supernatant filtered 0.2 µm PVDF

Structure (SMILES) | Solubility (solvent ACN) [µg/mL] | Solubility (solvent EtOH) [µg/mL] | Solubility [1] [µg/mL] | Solubility [2] [µg/mL] | Solubility (solvent MeOH) [µg/mL] | Solubility (solvent acetone) [µg/mL]
COC(=O)C1=C(C)NC(C)=C(C(=O)OC(C)(C)CN(C)CCC(c2ccccc2)c2ccccc2)C1c1cccc([N+](=O)[O-])c1 (single isomer, unassigned) [FI, Lercanidipine.HCl Form I] | 13800 | 28200 | 1600 | 200 | 263900 | 9400
COC(=O)C1=C(C)NC(C)=C(C(=O)OC(C)(C)CN(C)CCC(c2ccccc2)c2ccccc2)C1c1cccc([N+](=O)[O-])c1 (single isomer, unassigned) [FII, Lercanidipine.HCl Form II] | 4800 | 10500 | 300 | 9 | 83900 | 2700
COC(=O)C1=C(C)NC(C)=C(C(=O)OC(C)(C)CN(C)CCC(c2ccccc2)c2ccccc2)C1c1cccc([N+](=O)[O-])c1 (single isomer, unassigned) [FV, Lercanidipine.HCl Form V] | 26100 | 46720 | 960 | 70 | 221900 | 18500
